{
  "source": "patent US20260224573A1",
  "about": "“CRYSTAL FORM OF COMPOUND, AND PREPARATION METHOD AND USE THEREOF” (FELICAMED BIOTECHNOLOGY CO., LTD., priority 2023, published 2026)",
  "remark": "listed apart in the source",
  "key": {"[1]": {"test": "TGA weight loss / thermal stability", "assay_type": "physicochemical", "conditions": "for thermal stability: comparison of TGA/DSC patterns; for TGA weight loss: heated to 150° C.", "text": "TGA and DSC patterns were collected on a TA Q5000 thermogravimetric analyzer and a TA Discovery 2500 differential scanning calorimeter, respectively.\nTGA results were collected on a TA Discovery 5500 thermogravimetric analyzer, and DSC results were collected on a TA Discovery 2500 differential scanning calorimeter."}, "[2]": {"test": "Pharmacokinetics of hydrochloride crystal form A in Beagle dogs", "assay_type": "in vivo", "conditions": "single i.g. 6 mg/kg", "experimental": "In this experiment, three male Beagle dogs were randomly selected for administration. All the animals were fasted for at least 12 h before administration and were fed again 4 h after administration. […] The blood samples from the animals were collected through the jugular vein, with a blood sample volume of 0.5 mL/time. All collected whole blood samples were placed in centrifuge tubes containing EDTA-K2, and the centrifuge tubes were turned upside down to allow the anticoagulant and blood to be fully mixed. All the blood samples were placed on wet ice before centrifugation and centrifuged at 1500 g for 10 min to separate plasma. The plasma samples were transferred to sample tubes and stored at -40° C. to […] until analysis. The drug concentration in the plasma of each Beagle dog was detected by an LC-MS/MS method."}, "[3]": {"text": "DVS isotherms were collected on an SMS (Surface Measurement Systems) DVS Intrinsic."}, "[4]": {"test": "Assessment of dynamic solubility", "assay_type": "physicochemical", "conditions": "for pH of filtrate: 37° C."}, "[5]": {"test": "Assessment of 24-h solubility in pH buffers", "assay_type": "physicochemical", "conditions": "room temperature; for FC: crystal transfer: Buffer (pH = 7.4); for solubility at 24 h: thermodynamic from solid, read-out: S: solubility, calculated as free form"}, "[6]": {"experimental": "A method for testing the density and the tapped density included: (1) a certain mass of to-be-assessed sample was placed into a 5 mL measuring cylinder, and the volume at this moment was recorded. The bulk density was calculated by dividing the mass of the sample by the volume at this moment. (2) The measuring cylinder was slightly tapped 200 times, the final volume was recorded, and the tapped density was calculated by dividing the mass of the sample by the final volume. (3) Three parallel tests were conducted. A method for testing the angle of repose included: (1) a funnel was fixed vertically to a bottom surface, and the material was slowly placed into the funnel. (2) A well-proportioned cone of the material was formed on the bottom surface. The height and bottom surface diameter of the cone were measured. (3) Three parallel tests were conducted.", "remark": "listed apart in the source"}, "[7]": {"conditions": "listed as phosphate crystal form A"}, "[8]": {"conditions": "dog, plasma, po, male Beagle dogs, mean"}, "[9]": {"conditions": "listed as hydrochloride crystal form A"}},
  "note": "Structures can show the parent of a compound that is named as a salt. Where two headings read alike, the source gives them in different places.",
  "data": [
    {"compound": "CC[S@@](=N)(=O)C[C@H]1CC[C@H](N(C)c2ncnc3[nH]ccc23)CC1", "note": "[Phosphate crystal form A]", "values": [
      {"measurement": "thermal stability", "setting": "[1]; [7]", "value": "slightly poor thermal stability"},
      {"measurement": "TGA weight loss", "setting": "[1]; listed as Phosphate Crystal Form A", "value": 2.82, "unit": "%"},
      {"measurement": "TGA weight loss", "setting": "[1]; [7]", "value": 2.82, "unit": "%"}
    ]},
    {"compound": "CC[S@@](=N)(=O)C[C@H]1CC[C@H](N(C)c2ncnc3[nH]ccc23)CC1", "note": "[Hydrochloride crystal form A]", "values": [
      {"measurement": "AUC(0-inf)", "setting": "[2]; [8]", "value": 32100, "unit": "ng·h/mL"},
      {"measurement": "AUC(0-t)", "setting": "[2]; [8]", "value": 31700, "unit": "ng·h/mL"},
      {"measurement": "Cmax", "setting": "[2]; [8]", "value": 5290, "unit": "ng/mL"},
      {"measurement": "Tmax", "setting": "[2]; [8]", "value": 0.417, "unit": "h"},
      {"measurement": "half-life", "setting": "[2]; [8]", "value": 3.59, "unit": "h"},
      {"measurement": "MRT inf", "setting": "[2]; dog, plasma, po, male Beagle dogs, mean, read-out: MRT0-inf", "value": 5.11, "unit": "h"},
      {"measurement": "MRT last", "setting": "[2]; dog, plasma, po, male Beagle dogs, mean, read-out: MRT0-t", "value": 4.84, "unit": "h"},
      {"measurement": "clinical observation", "setting": "[2]", "value": "no obvious abnormalities were found"},
      {"measurement": "hygroscopicity", "setting": "[3]; 25° C./80% RH", "value": "slight hygroscopicity"},
      {"measurement": "Crystal transformation after DVS", "setting": "[3]; XRPD before and after DVS", "value": "No"},
      {"measurement": "pH of filtrate", "setting": "[4]; FaSSIF, 1 h", "value": 5.0},
      {"measurement": "pH of filtrate", "setting": "[4]; FaSSIF, 4 h", "value": 5.1},
      {"measurement": "pH of filtrate", "setting": "[4]; FeSSIF, 2 h", "value": 4.9},
      {"measurement": "pH of filtrate", "setting": "[4]; FeSSIF, 4 h", "value": 4.9},
      {"measurement": "pH of filtrate", "setting": "[4]; H2O, 1 h", "value": 4.0},
      {"measurement": "pH of filtrate", "setting": "[4]; H2O, 2 h", "value": 4.0},
      {"measurement": "pH of filtrate", "setting": "[4]; H2O, 4 h", "value": 4.0},
      {"measurement": "solubility", "setting": "[4]; H2O, SGF, FaSSIF and FeSSIF, 37 °C, water, thermodynamic from solid, in H2O, fully soluble", "value": "> 9000", "unit": "µg/mL"},
      {"measurement": "pH of filtrate", "setting": "[4]; SGF, 1 h", "value": 2.9},
      {"measurement": "pH of filtrate", "setting": "[4]; SGF, 4 h", "value": 3.0},
      {"measurement": "UPLC peak Area, RRT 1.62", "setting": "25° C./60% RH/4 weeks", "value": 0.05, "unit": "%"},
      {"measurement": "UPLC peak Area, RRT 2.10", "setting": "25° C./60% RH/4 weeks", "value": 0.07, "unit": "%"},
      {"measurement": "UPLC peak Area, RRT 2.19", "setting": "25° C./60% RH/4 weeks", "value": "<0.05", "unit": "%"},
      {"measurement": "Crystal form Transform", "setting": "25° C./60% RH/4 weeks, open", "value": "No"},
      {"measurement": "UPLC peak Area, RRT 1.00", "setting": "40° C./75% RH/4 weeks", "value": 99.88, "unit": "%"},
      {"measurement": "UPLC peak Area, RRT 1.62", "setting": "40° C./75% RH/4 weeks", "value": 0.05, "unit": "%"},
      {"measurement": "UPLC peak Area, RRT 2.10", "setting": "40° C./75% RH/4 weeks", "value": 0.07, "unit": "%"},
      {"measurement": "UPLC peak Area, RRT 2.19", "setting": "40° C./75% RH/4 weeks", "value": "<0.05", "unit": "%"},
      {"measurement": "Crystal form Transform", "setting": "40° C./75% RH/4 weeks, open", "value": "No"},
      {"measurement": "Purity", "setting": "40° C./75% RH/4 weeks, open", "value": 99.88, "unit": "area %"},
      {"measurement": "UPLC peak Area, RRT 1.62", "setting": "80° C./1 d", "value": 0.05, "unit": "%"},
      {"measurement": "UPLC peak Area, RRT 2.10", "setting": "80° C./1 d", "value": 0.08, "unit": "%"},
      {"measurement": "UPLC peak Area, RRT 2.19", "setting": "80° C./1 d", "value": "<0.05", "unit": "%"},
      {"measurement": "Crystal form Transform", "setting": "80° C./1 d, closed", "value": "No"},
      {"measurement": "Purity", "setting": "80° C./1 d, closed", "value": 99.87, "unit": "area %"},
      {"measurement": "UPLC peak Area, RRT 1.00", "setting": "Starting", "value": 99.82, "unit": "%"},
      {"measurement": "UPLC peak Area, RRT 1.62", "setting": "Starting", "value": 0.05, "unit": "%"},
      {"measurement": "UPLC peak Area, RRT 2.10", "setting": "Starting", "value": 0.08, "unit": "%"},
      {"measurement": "UPLC peak Area, RRT 2.19", "setting": "Starting", "value": 0.06, "unit": "%"},
      {"measurement": "Starting purity", "setting": "before storage, UPLC", "value": 99.82, "unit": "area %"},
      {"measurement": "thermal stability", "setting": "[1]", "value": "high"},
      {"measurement": "TGA weight loss", "setting": "[1]; listed as Hydrochloride Crystal Form A", "value": 0.53, "unit": "%"},
      {"measurement": "TGA weight loss", "setting": "[1]; [9]", "value": 0.53, "unit": "%"},
      {"measurement": "FC: crystal transfer", "setting": "[5]", "value": "Yes"},
      {"measurement": "FC: crystal transfer", "setting": "[5]; [9]", "value": "transformed into the free crystal form A"},
      {"measurement": "solubility at 24 h", "setting": "[5]; buffer pH 2.0, pH 2, aqueous buffer, Buffer (pH = 2.0)", "value": "> 9200", "unit": "µg/mL"},
      {"measurement": "solubility at 24 h", "setting": "[5]; buffer pH 4.5, pH 4.5, aqueous buffer, Buffer (pH = 4.5)", "value": "> 9200", "unit": "µg/mL"},
      {"measurement": "flowability", "setting": "[6]; conclusion from Carr index and angle of repose", "value": "high flowability"},
      {"measurement": "Bulk density", "setting": "[6]; single tests 1 to 3", "value": 0.14, "unit": "g/mL"},
      {"measurement": "Average bulk density", "setting": "[6]; three parallel tests", "value": 0.14, "unit": "g/mL"},
      {"measurement": "Average tapped density", "setting": "[6]; three parallel tests, tapped 200 times", "value": 0.24, "unit": "g/mL"}
    ]},
    {"compound": "CC[S@@](=N)(=O)C[C@H]1CC[C@H](N(C)c2ncnc3[nH]ccc23)CC1", "note": "[Sulfate crystal form A]", "values": [
      {"measurement": "thermal stability", "setting": "[1]; listed as sulfate crystal form A", "value": "poor thermal stability"},
      {"measurement": "TGA stepwise weight loss", "setting": "[1]; heated to 100° C.", "value": 14.83, "unit": "%"}
    ]}
  ]
}
